Test results: ChEMBL document CHEMBL1201862, “PubChem BioAssay data set” (2004)
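Where inhibition never reached the appropriate level, the endpoint shown equals the highest concentration tested. Otherwise, values were interpolated linearly from a five-concentration, 48-hour dose response in 96-well plates. The concentration for 50% growth inhibition is given as GI50.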 Calls of active or inactive are those of the source. No stated cut-off is given here; in the data, active = GI50 up to about 1.1 µM and inactive = higher.

How the values were obtained:
Test in all cases: growth of human tumour cells (NCI), 48 h
DMS-273 = tested on: DMS-273
KM12 = tested on: KM12
LOX IMVI = tested on: LOX IMVI
SNB-75 = tested on: SNB-75
HOP-62 = tested on: HOP-62
SNB-19 = tested on: SNB-19
TK-10 = tested on: TK-10
NCI-H226 = tested on: NCI-H226
SK-OV-3 = tested on: SK-OV-3
UO-31 = tested on: UO-31
DMS-114 = tested on: DMS-114
UACC-257 = tested on: UACC-257
NCI-H460 = tested on: NCI-H460
SNB-78 = tested on: SNB-78
COLO 205 = tested on: COLO 205
ACHN = tested on: ACHN
SK-MEL-5 = tested on: SK-MEL-5
SF-295 = tested on: SF-295
IGROV-1 = tested on: IGROV-1
CCRF-CEM = tested on: CCRF-CEM
CAKI-1 = tested on: CAKI-1
HCT-15 = tested on: HCT-15
NCI-H23 = tested on: NCI-H23
OVCAR-4 = tested on: OVCAR-4
A498 = tested on: A498
EKVX = tested on: EKVX
M14 = tested on: M14
OVCAR-5 = tested on: OVCAR-5
786-0 = tested on: 786-0
HT-29 = tested on: HT-29
SW-620 = tested on: SW-620
Malme-3M = tested on: Malme-3M
RXF 631 = tested on: RXF 631
OVCAR-3 = tested on: OVCAR-3
SK-MEL-2 = tested on: SK-MEL-2
SK-MEL-28 = tested on: SK-MEL-28
M19-MEL = tested on: M19-MEL
OVCAR-8 = tested on: OVCAR-8
U-251 = tested on: U-251
SN12C = tested on: SN12C
KM-20L2 = tested on: KM-20L2
DLD-1 = tested on: DLD-1
HCC 2998 = tested on: HCC 2998
SF-539 = tested on: SF-539
SF-268 = tested on: SF-268
K562 = tested on: K562
A549 = tested on: A549
HOP-18 = tested on: HOP-18
HCT-116 = tested on: HCT-116
UACC-62 = tested on: UACC-62
RPMI-8226 = tested on: RPMI-8226
SR = tested on: SR
HOP-92 = tested on: HOP-92
XF498 = tested on: XF498
HL-60 = tested on: HL-60
LXFL 529 = tested on: LXFL 529
NCI-H522 = tested on: NCI-H522
MOLT-4 = tested on: MOLT-4

For `Nc1nc(N)c(CCCCc2ccccc2)c(C=O)n1`, the GI50 (DMS-273) was 17.2 µM (inactive), the GI50 (KM12) was 15.9 µM (inactive) and the GI50 (LOX IMVI) was 14.8 µM (inactive). The GI50 (SNB-75) was 12.7 µM (inactive), the GI50 (HOP-62) was > 100 µM (inactive) and the GI50 (SNB-19) was 16.1 µM (inactive). For the same molecule, the GI50 (TK-10) was 27.6 µM (inactive), the GI50 (NCI-H226) was 19.4 µM (inactive) and the GI50 (SK-OV-3) was 31.1 µM (inactive). For the same molecule, the GI50 (UO-31) was 19.1 µM (inactive), the GI50 (DMS-114) was 15.9 µM (inactive) and the GI50 (UACC-257) was 13.6 µM (inactive). For the same molecule, the GI50 (NCI-H460) was 42.1 µM (inactive), the GI50 (SNB-78) was 22.9 µM (inactive) and the GI50 (COLO 205) was 31.8 µM (inactive). The GI50 (ACHN) was 22.5 µM (inactive), the GI50 (SK-MEL-5) was 17 µM (inactive) and the GI50 (SF-295) was 22 µM (inactive). The GI50 (IGROV-1) was 17.8 µM (inactive), the GI50 (CCRF-CEM) was 10.6 µM (inactive) and the GI50 (CAKI-1) was 27.3 µM (inactive). The GI50 (HCT-15) was 14.7 µM, the GI50 (NCI-H23) was 19 µM (inactive) and the GI50 (OVCAR-4) was 23.9 µM (inactive). The GI50 (A498) was > 100 µM (inactive), the GI50 (EKVX) was 21 µM (inactive) and the GI50 (M14) was 16.4 µM (inactive). For the same molecule, the GI50 (OVCAR-5) was > 100 µM (inactive), the GI50 (786-0) was 15 µM (inactive) and the GI50 (HT-29) was 9.62 µM (inactive). For the same molecule, the GI50 (SW-620) was 11.7 µM (inactive), the GI50 (Malme-3M) was 18.1 µM (inactive) and the GI50 (RXF 631) was 43.5 µM (inactive). The GI50 (OVCAR-3) was 14.3 µM (inactive), the GI50 (SK-MEL-2) was 20 µM (inactive) and the GI50 (SK-MEL-28) was 15.9 µM (inactive). For the same molecule, the GI50 (M19-MEL) was 14.8 µM (inactive), the GI50 (OVCAR-8) was 16.3 µM (inactive) and the GI50 (U-251) was 22.9 µM (inactive). The GI50 (SN12C) was 19.1 µM (inactive), the GI50 (KM-20L2) was 30.6 µM (inactive) and the GI50 (DLD-1) was 20.1 µM (inactive). The GI50 (HCC 2998) was 26.5 µM (inactive), the GI50 (SF-539) was 18.9 µM (inactive) and the GI50 (SF-268) was 18.8 µM (inactive). The GI50 (K562) was 5.81 µM (inactive), the GI50 (A549) was 41.4 µM (inactive) and the GI50 (HOP-18) was 40.8 µM (inactive). The GI50 (HCT-116) was 13.1 µM (inactive), the GI50 (UACC-62) was 15.2 µM (inactive) and the GI50 (RPMI-8226) was 13.2 µM (inactive).
In the case of `OC1(C23CC4CC(CC(C4)C2)C3)CSCC1(O)C12CC3CC(CC(C3)C1)C2` (configuration not stated), the GI50 (DMS-273) is reported as > 100 µM (inactive), the GI50 (KM12) is reported as > 100 µM (inactive) and the GI50 (SNB-75) is reported as > 100 µM (inactive). For the same molecule, the GI50 (HOP-62) was > 100 µM (inactive), the GI50 (SNB-19) was > 100 µM (inactive) and the GI50 (TK-10) was > 100 µM (inactive). The GI50 (NCI-H226) was > 100 µM (inactive), the GI50 (SK-OV-3) was > 100 µM (inactive) and the GI50 (UO-31) was > 100 µM (inactive). For the same molecule, the GI50 (DMS-114) was > 100 µM (inactive), the GI50 (UACC-257) was > 100 µM (inactive) and the GI50 (SR) was > 100 µM (inactive). The GI50 (SNB-78) was > 100 µM (inactive), the GI50 (COLO 205) was > 100 µM (inactive) and the GI50 (SK-MEL-5) was > 100 µM (inactive). For the same molecule, the GI50 (SF-295) was > 100 µM (inactive), the GI50 (IGROV-1) was > 100 µM (inactive) and the GI50 (CCRF-CEM) was > 10 µM (inactive). The GI50 (CAKI-1) was > 100 µM (inactive), the GI50 (HOP-92) was > 100 µM (inactive) and the GI50 (NCI-H23) was > 100 µM (inactive). The GI50 (OVCAR-4) was > 100 µM (inactive), the GI50 (EKVX) was > 100 µM (inactive) and the GI50 (M14) was > 100 µM (inactive). For the same molecule, the GI50 (XF498) was > 100 µM (inactive), the GI50 (786-0) was > 100 µM (inactive) and the GI50 (HT-29) was > 100 µM (inactive). For the same molecule, the GI50 (SW-620) was > 100 µM (inactive), the GI50 (Malme-3M) was > 100 µM (inactive) and the GI50 (RXF 631) was > 100 µM (inactive). For the same molecule, the GI50 (OVCAR-3) was > 100 µM (inactive), the GI50 (SK-MEL-2) was > 100 µM (inactive) and the GI50 (SK-MEL-28) was > 100 µM (inactive). The GI50 (HL-60) was > 10 µM (inactive), the GI50 (M19-MEL) was 64.6 µM (inactive) and the GI50 (OVCAR-8) was > 100 µM (inactive). For the same molecule, the GI50 (SN12C) was > 100 µM (inactive), the GI50 (LXFL 529) was > 100 µM (inactive) and the GI50 (NCI-H522) was > 100 µM (inactive). The GI50 (DLD-1) was > 100 µM (inactive), the GI50 (HCC 2998) was > 100 µM (inactive) and the GI50 (SF-539) was > 100 µM (inactive). The GI50 (SF-268) was > 100 µM (inactive), the GI50 (K562) was > 100 µM (inactive) and the GI50 (A549) was > 100 µM (inactive). The GI50 (HCT-116) was > 100 µM (inactive), the GI50 (UACC-62) was 70.6 µM (inactive) and the GI50 (MOLT-4) was > 10 µM (inactive). The GI50 (RPMI-8226) was > 100 µM (inactive).
For `CC1CC2OC(=O)CC2C[C@@H]1O[Si](C)(C)C(C)(C)C` (some centres not stated), the GI50 (DMS-273) was 33.7 µM (inactive), the GI50 (KM12) was 44.3 µM (inactive) and the GI50 (LOX IMVI) was 55.7 µM (inactive). For the same molecule, the GI50 (SNB-75) was 51.4 µM (inactive), the GI50 (HOP-62) was 48.9 µM (inactive) and the GI50 (SNB-19) was > 100 µM (inactive). For the same molecule, the GI50 (TK-10) was > 100 µM (inactive), the GI50 (SK-OV-3) was > 100 µM (inactive) and the GI50 (UO-31) was 57.7 µM (inactive). The GI50 (DMS-114) was 28 µM (inactive), the GI50 (UACC-257) was 61.8 µM (inactive) and the GI50 (NCI-H460) was 75.7 µM (inactive). The GI50 (SNB-78) was > 100 µM (inactive), the GI50 (COLO 205) was 74.6 µM (inactive) and the GI50 (ACHN) was 43.9 µM (inactive). For the same molecule, the GI50 (SK-MEL-5) was 27 µM (inactive), the GI50 (SF-295) was 58.7 µM (inactive) and the GI50 (IGROV-1) was 74.5 µM (inactive). The GI50 (CCRF-CEM) was 36.8 µM (inactive), the GI50 (CAKI-1) was 70.5 µM (inactive) and the GI50 (HCT-15) was 54.5 µM. For the same molecule, the GI50 (HOP-92) was 3.68 µM (inactive), the GI50 (NCI-H23) was 63 µM (inactive) and the GI50 (OVCAR-4) was 61 µM (inactive). For the same molecule, the GI50 (A498) was > 10 µM (inactive), the GI50 (EKVX) was > 100 µM (inactive) and the GI50 (M14) was 94.6 µM (inactive). The GI50 (OVCAR-5) was > 100 µM (inactive), the GI50 (786-0) was 80.9 µM (inactive) and the GI50 (HT-29) was 40.5 µM (inactive). The GI50 (SW-620) was > 100 µM (inactive), the GI50 (Malme-3M) was 65.3 µM (inactive) and the GI50 (RXF 631) was 44.5 µM (inactive). The GI50 (OVCAR-3) was 40.4 µM (inactive), the GI50 (SK-MEL-2) was 83.4 µM (inactive) and the GI50 (HL-60) was 20.6 µM (inactive). The GI50 (M19-MEL) was 42.8 µM (inactive), the GI50 (OVCAR-8) was 81.5 µM (inactive) and the GI50 (SN12C) was > 100 µM (inactive). The GI50 (LXFL 529) was 68.7 µM (inactive), the GI50 (KM-20L2) was 46.3 µM (inactive) and the GI50 (DLD-1) was 83.4 µM (inactive). For the same molecule, the GI50 (HCC 2998) was 43.3 µM (inactive), the GI50 (SF-539) was > 100 µM (inactive) and the GI50 (SF-268) was 64.4 µM (inactive). The GI50 (K562) was 36.1 µM (inactive), the GI50 (A549) was 88.3 µM (inactive) and the GI50 (HOP-18) was > 100 µM (inactive). For the same molecule, the GI50 (HCT-116) was 38.5 µM (inactive), the GI50 (UACC-62) was 68.7 µM (inactive) and the GI50 (MOLT-4) was 21.5 µM (inactive). The GI50 (RPMI-8226) was 21.7 µM (inactive).
